Laboratory results reported in patent publication US10517889B2, “Modulators of SMAD7 expression” (Ionis Pharmaceuticals, Inc., priority 2017, dated 2019).
Strand notation (5' to 3'): a small letter for the sugar, then the base; units joined by * are phosphorothioate-linked, units joined directly phosphodiester-linked; [ ] holds rarer units or linkages, { } end groups; capitals alone tell only the bases. e = 2'-O-(2-methoxyethyl) (MOE); [5mC] = 5-methylcytosine; d = 2'-deoxy (DNA)

What follows are substances tested on human SMAD7 mRNA (assay: Antisense inhibition of human SMAD7 mRNA expression in Hep3B cells by 5-10-5 MOE gapmers, single concentration, electroporation, RT-PCR (Example 1, Study 1 and 2)). Conditions: Study 2, electroporation with 15,000 nM antisense oligonucleotide, 5-10-5 MOE gapmers targeting SEQ ID NO: 1 and 2.
Format: cell-based
Method: Antisense oligonucleotides were designed to target human SMAD7 mRNA and were tested for their effects on SMAD7 mRNA expression in vitro. Cultured Hep3B cells at a density of 20,000 cells per well were transfected using electroporation with antisense oligonucleotide ION 483663 (a 5-10-5 MOE gapmer), the sequence of which overlaps with ION 28453 (a 4-10-4 MOE gapmer) was included in these assays for comparison. ION 28453 has been previously disclosed in U.S. Pat. No. 6,159,697). After a treatment period of approximately 24 hours, RNA was isolated from the cells and SMAD7 mRNA levels were measured by quantitative real-time PCR. Primer probe set RTS5062 (forward sequence […], designated herein as SEQ ID NO: 11; reverse sequence […], designated herein as SEQ ID NO: 12; probe sequence […], designated herein as SEQ ID NO: 13) was used to measure human SMAD7 mRNA levels. SMAD7 mRNA levels were adjusted according to total RNA content, as measured by RIBOGREEN®. Results are presented as percent inhibition of SMAD7 mRNA expression, relative to untreated control cells.
The newly designed chimeric antisense oligonucleotides in the Tables below were designed as 5-10-5 MOE gapmers. The gapmers are 20 nucleosides in length, wherein the central gap segment comprises of ten 2′-deoxynucleosides and is flanked by wing segments on the 5′ direction and the 3′ direction comprising five nucleosides each. Each nucleoside in the 5′ wing segment and each nucleoside in the 3′ wing segment has a 2′-MOE modification. The internucleoside linkages throughout each gapmer are phosphorothioate (P═S) linkages. All cytosine residues throughout each gapmer are 5-methylcytosines.
“Start site” indicates the 5′-most nucleoside to which the gapmer is targeted in the human gene sequence. “Stop site” indicates the 3′-most nucleoside to which the gapmer is targeted human gene sequence.
Cultured Hep3B cells at a density of 20,000 cells per well were transfected using electroporation with 5,000 nM antisense oligonucleotide.
Cultured Hep3B cells at a density of 20,000 cells per well were transfected using electroporation with 15,000 nM antisense oligonucleotide. The antisense oligonucleotides were tested in a series of experiments that had similar culture conditions as described below.
Some of the oligonucleotides presented were complementary to SMAD7 mRNA sequences RefSeqNo. NM_001190821.1 (designated herein as SEQ ID NO: 3) or RefSeqNo. NM_001190822.1 (designated herein as SEQ ID NO: 4), and are presented in a separate table shown below.

Q: With “771796 (antisense eG*eT*eT*eT*eG*d[5mC]*dG*d[5mC]*dA*d[5mC]*dG*dG*dG*dA*dT*eT*eG*eT*e[5mC]*eT) [compound 771796]” as the substance, how does the “% Inhibition” value read?
A: 16%

Q: How did the “% inhibition of SMAD7 mRNA expression” value turn out when “771543 (antisense e[5mC]*e[5mC]*e[5mC]*e[5mC]*eA*dA*d[5mC]*dA*dA*dT*dT*d[5mC]*dT*dT*dT*eT*e[5mC]*eA*eT*eA) [compound 771543]” was run?
A: 36%

Q: With “771542 (antisense eA*e[5mC]*eA*eA*eT*dT*d[5mC]*dT*dT*dT*dT*d[5mC]*dA*dT*dA*eA*eG*e[5mC]*eT*eA) [compound 771542]” as the substance, how does the “% inhibition of SMAD7 mRNA expression” value read?
A: 0%

Q: With “771596 (antisense eG*eA*e[5mC]*eA*eA*dG*dG*dA*dT*dG*dA*dA*dA*dA*dT*eA*eA*eT*eT*eG) [compound 771596]” as the substance, how does the “% inhibition of SMAD7 mRNA expression” value read?
A: 0%

Q: With “771847 (antisense e[5mC]*eA*eT*e[5mC]*eA*d[5mC]*d[5mC]*dT*dT*d[5mC]*dG*dG*dA*d[5mC]*dA*eA*eG*e[5mC]*e[5mC]*eA) [compound 771847]” as the substance, how does the “% Inhibition” value read?
A: 53%

Q: How did the “% inhibition of SMAD7 mRNA expression” value turn out when “771488 (antisense e[5mC]*eT*eG*eA*eT*d[5mC]*dT*dG*d[5mC]*dA*d[5mC]*dG*dG*dT*dA*eA*eA*eG*e[5mC]*e[5mC]) [compound 771488]” was run?
A: 53%

Q: “771452 (antisense eG*eG*eT*eA*eT*d[5mC]*dT*dG*dG*dA*dG*dT*dA*dA*dG*eG*eA*eG*eG*eG) [compound 771452]” was tested. Which “% Inhibition” value did it give?
A: 55%

Q: “771935 (antisense eG*eG*eA*eA*eG*dG*dA*d[5mC]*dA*d[5mC]*dA*dT*dT*dG*dG*e[5mC]*eA*eT*e[5mC]*eA) [compound 771935]” was tested. Which “% Inhibition” value did it give?
A: 23%

Q: “771843 (antisense e[5mC]*eG*e[5mC]*e[5mC]*eG*dG*d[5mC]*d[5mC]*d[5mC]*dA*d[5mC]*d[5mC]*dA*dA*d[5mC]*e[5mC]*eT*e[5mC]*eT*eG) [compound 771843]” was tested. Which “% Inhibition” value did it give?
A: 17%

Q: How did the “% Inhibition” value turn out when “771943 (antisense eG*eT*eA*eT*eT*dT*dG*dT*dT*dA*dA*d[5mC]*dA*dA*dA*eA*eA*eT*eG*eG) [compound 771943]” was run?
A: 0%

Same assay, conditions: electroporation with 15,000 nM antisense oligonucleotide (Study 2), 5-10-5 MOE gapmers targeting SEQ ID NO: 1 and 2

Q: Which “% inhibition of SMAD7 mRNA expression” value does the source give for “771665 (antisense eA*eA*eT*eG*e[5mC]*dT*dA*dA*dA*dT*dT*dT*d[5mC]*d[5mC]*dA*eA*eT*eG*eA*eG) [compound 771665]” here?
A: 24%

Q: With “771682 (antisense eT*eG*eT*eT*eA*dT*dT*dT*dG*d[5mC]*dA*dT*dT*dT*dA*eT*eA*eT*eT*eA) [compound 771682]” as the substance, how does the “% inhibition of SMAD7 mRNA expression” value read?
A: 18%

Q: “771674 (antisense eA*eT*eA*eA*eA*dT*d[5mC]*dT*d[5mC]*dA*dG*dG*dT*dT*dT*eT*eT*eT*eT*eT) [compound 771674]” was tested. Which “% inhibition of SMAD7 mRNA expression” value did it give?
A: 0%

Q: “771832 (antisense eA*e[5mC]*e[5mC]*eT*eT*dT*d[5mC]*dA*d[5mC]*dG*dA*dA*d[5mC]*d[5mC]*dA*e[5mC]*eT*eT*eT*eT) [compound 771832]” was tested. Which “% Inhibition of SMAD7 mRNA” value did it give?
A: 31%

Same assay, conditions: electroporation, 5,000 nM, approximately 24 hours, relative to untreated control cells, gapmers targeting SEQ ID NO: 1 and 2

Q: For “771452 (antisense eG*eG*eT*eA*eT*d[5mC]*dT*dG*dG*dA*dG*dT*dA*dA*dG*eG*eA*eG*eG*eG) [compound 771452]”, which “% inhibition of SMAD7 mRNA expression” value is on record?
A: 25%

Q: For “771843 (antisense e[5mC]*eG*e[5mC]*e[5mC]*eG*dG*d[5mC]*d[5mC]*d[5mC]*dA*d[5mC]*d[5mC]*dA*dA*d[5mC]*e[5mC]*eT*e[5mC]*eT*eG) [compound 771843]”, which “% inhibition of SMAD7 mRNA expression” value is on record?
A: 19%

Same assay, conditions: electroporation, 15,000 nM antisense oligonucleotide (Study 2), 5-10-5 MOE gapmers targeting SEQ ID NO: 1 and 2

Q: Which “% inhibition of SMAD7 mRNA expression” value does the source give for “771873 (antisense eA*eG*e[5mC]*eT*eG*d[5mC]*dT*dG*dT*d[5mC]*dA*d[5mC]*dA*dA*dG*eG*e[5mC]*e[5mC]*e[5mC]*eT) [compound 771873]” here?
A: 31%

Q: With “771348 (antisense eG*eG*e[5mC]*e[5mC]*eA*d[5mC]*dG*dA*d[5mC]*dA*dG*dT*dA*dT*d[5mC]*eT*eG*eG*eG*e[5mC]) [compound 771348]” as the substance, how does the “% inhibition of SMAD7 mRNA expression” value read?
A: 42%

Q: With “771832 (antisense eA*e[5mC]*e[5mC]*eT*eT*dT*d[5mC]*dA*d[5mC]*dG*dA*dA*d[5mC]*d[5mC]*dA*e[5mC]*eT*eT*eT*eT) [compound 771832]” as the substance, how does the “% inhibition of SMAD7 mRNA expression” value read?
A: 11%

Same assay, conditions: electroporation, 15,000 nM, approximately 24 hours, relative to untreated control cells, gapmers targeting SEQ ID NO: 1 and 2

Q: “771422 (eA*eT*e[5mC]*e[5mC]*eA*dG*d[5mC]*d[5mC]*d[5mC]*dT*dG*d[5mC]*d[5mC]*d[5mC]*dG*eG*eG*e[5mC]*e[5mC]*eG; antisense) [compound 771422]” was tested. Which “% inhibition of SMAD7 mRNA expression” value did it give?
A: 27%

Q: For “771525 (antisense eT*eT*eT*eG*e[5mC]*dA*dT*dG*dA*dA*dA*dA*dG*d[5mC]*dA*eA*eG*e[5mC]*eA*e[5mC]) [compound 771525]”, which “% inhibition of SMAD7 mRNA expression” value is on record?
A: 28%
